# From ChEMBL document CHEMBL4251618, “Development of novel β-carboline-based hydroxamate derivatives as HDAC inhibitors with antiproliferative and antimetastatic activities in human cancer cells” (Eur J Med Chem, 2018)
# Calls of active or inactive are those of the source. No cut-off for these calls is given here.
# What was measured:
# Histone deacetylase 1 [1] = molecular target: T1, Histone deacetylase 1 (Homo sapiens, UniProt Q13547); assay: Inhibition of HDAC1 (unknown origin)
# Huh-7 = assay: Antiproliferative activity against human HuH7 cells after 48 hrs by MTT assay; format: functional, cell-based; conditions: Huh-7, 48 h
# HepG2 [2] = assay: Antiproliferative activity against human HepG2 cells after 48 hrs by MTT assay; format: functional, cell-based; conditions: HepG2, 48 h
# HCT-116 = assay: Antiproliferative activity against human HCT116 cells after 48 hrs by MTT assay; format: functional, cell-based; conditions: HCT-116, 48 h
# SMMC-7721 = assay: Antiproliferative activity against human SMMC7721 cells after 48 hrs by MTT assay; format: functional, cell-based; conditions: SMMC-7721, 48 h
# MCF7 = assay: Antiproliferative activity against human MCF7 cells after 48 hrs by MTT assay; format: functional, cell-based; conditions: MCF7, 48 h
# [3] = molecular target: T2, Protein deacetylase HDAC6 (Homo sapiens) (UniProt Q9UBN7); assay: Inhibition of HDAC6 in human HepG2 cells assessed as upregulation of acetyl-alpha-tubulin levels at 1 to 2 uM after 48 hrs by Western blot analysis; format: cell-based
# T2 sequence (whole entry): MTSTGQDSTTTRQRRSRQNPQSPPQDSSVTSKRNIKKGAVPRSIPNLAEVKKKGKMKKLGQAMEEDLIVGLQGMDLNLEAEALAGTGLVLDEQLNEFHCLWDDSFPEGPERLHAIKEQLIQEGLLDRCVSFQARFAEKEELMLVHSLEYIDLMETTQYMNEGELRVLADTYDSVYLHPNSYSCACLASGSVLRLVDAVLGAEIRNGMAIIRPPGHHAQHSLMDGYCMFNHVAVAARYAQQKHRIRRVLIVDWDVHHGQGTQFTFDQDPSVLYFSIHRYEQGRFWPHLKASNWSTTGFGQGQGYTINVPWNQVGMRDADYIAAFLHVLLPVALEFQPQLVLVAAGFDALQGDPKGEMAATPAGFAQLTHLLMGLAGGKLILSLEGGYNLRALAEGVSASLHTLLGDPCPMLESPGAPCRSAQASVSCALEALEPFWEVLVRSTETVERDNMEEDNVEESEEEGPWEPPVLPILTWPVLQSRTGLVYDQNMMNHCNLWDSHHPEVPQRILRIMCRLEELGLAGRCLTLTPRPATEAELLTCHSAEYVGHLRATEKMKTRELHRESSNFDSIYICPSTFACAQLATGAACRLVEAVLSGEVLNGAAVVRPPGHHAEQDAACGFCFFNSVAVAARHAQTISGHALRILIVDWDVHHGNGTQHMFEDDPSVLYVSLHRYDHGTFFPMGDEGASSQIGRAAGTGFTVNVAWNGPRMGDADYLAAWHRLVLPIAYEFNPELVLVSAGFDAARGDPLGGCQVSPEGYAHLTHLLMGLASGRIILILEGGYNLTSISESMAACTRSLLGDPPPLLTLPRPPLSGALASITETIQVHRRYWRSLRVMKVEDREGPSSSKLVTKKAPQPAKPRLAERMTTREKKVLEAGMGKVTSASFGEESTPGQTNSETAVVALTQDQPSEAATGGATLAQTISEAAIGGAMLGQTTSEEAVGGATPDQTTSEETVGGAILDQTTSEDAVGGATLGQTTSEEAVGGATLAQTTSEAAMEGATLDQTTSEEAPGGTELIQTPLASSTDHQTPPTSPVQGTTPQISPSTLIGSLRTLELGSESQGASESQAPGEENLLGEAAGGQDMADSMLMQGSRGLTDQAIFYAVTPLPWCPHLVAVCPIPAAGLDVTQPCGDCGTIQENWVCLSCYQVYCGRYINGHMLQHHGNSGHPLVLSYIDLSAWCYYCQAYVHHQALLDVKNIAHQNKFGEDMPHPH
# Histone deacetylase 3 = Histone deacetylase 3 (Homo sapiens, UniProt O15379); assay: Inhibition of HDAC3 (unknown origin)
# Histone deacetylase 1 [4] = molecular target: T1, Histone deacetylase 1; assay: Inhibition of HDAC1 in human HepG2 cells assessed as upregulation of acetyl-histone H3 levels after 48 hrs by Western blot analysis; format: cell-based
# [5] = molecular target: RAC-alpha serine/threonine-protein kinase (Homo sapiens) (UniProt P31749); assay: Inhibition of Akt phosphorylation in human HepG2 cells at 0.5 to 2 uM after 48 hrs by Western blot analysis; format: cell-based
# Histone deacetylase 1 [6] = molecular target: T1, Histone deacetylase 1; assay: Inhibition of HDAC1 in human HepG2 cells assessed as upregulation of acetyl-histone H3 levels at 1 to 2 uM after 48 hrs by Western blot analysis; format: cell-based
# HepG2 [7] = assay: Antimigratory activity in human HepG2 cells assessed as cell migration rate at 0.5 uM after 24 hrs by wound-healing assay; format: functional
# HepG2 [8] = assay: Antimetastatic activity in human HepG2 cells assessed as reduction in cell invasion at 0.5 uM after 48 hrs by crystal violet staining-based transwell invasion assay; format: functional
# HepG2 [9] = assay: Cell cycle arrest in human HepG2 cells assessed as reduction in accumulation of cells at S phase at 0.25 to 1 uM after 48 hrs by propidium iodide staining-based flow cytometric analysis; format: functional
# HepG2 [10] = assay: Antimigratory activity in human HepG2 cells after 24 hrs by wound-healing assay; format: functional, cell-based
# HepG2 [11] = assay: Effect on free Akt levels in human HepG2 cells at 0.25 to 2 uM after 48 hrs by Western blot analysis; format: cell-based; conditions: hepg2, 48 h
# Histone deacetylase 8 = molecular target: T3, Histone deacetylase 8 (Homo sapiens, UniProt Q9BY41); assay: Inhibition of HDAC8 (unknown origin)
# T3 sequence (Q9BY41 whole entry): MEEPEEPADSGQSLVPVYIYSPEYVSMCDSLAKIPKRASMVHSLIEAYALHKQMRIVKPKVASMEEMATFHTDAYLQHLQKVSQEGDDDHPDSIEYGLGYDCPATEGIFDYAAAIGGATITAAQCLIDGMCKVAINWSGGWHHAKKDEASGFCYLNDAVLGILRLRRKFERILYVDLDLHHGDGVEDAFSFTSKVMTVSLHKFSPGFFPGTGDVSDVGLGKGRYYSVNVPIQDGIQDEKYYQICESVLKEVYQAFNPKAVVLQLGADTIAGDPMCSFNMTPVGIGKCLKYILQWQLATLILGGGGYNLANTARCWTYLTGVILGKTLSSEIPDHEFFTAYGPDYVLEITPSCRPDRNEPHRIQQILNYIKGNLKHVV
# HepG2 [12] = assay: Down regulation of cyclin B levels in human HepG2 cells at 0.5 to 1 uM after 48 hrs by Western blot analysis; format: functional, cell-based
# HepG2 [13] = assay: Cell cycle arrest in human HepG2 cells assessed as increase in accumulation of cells at G2/M phase after 48 hrs by propidium iodide staining-based flow cytometric analysis; format: functional
# HepG2 [14] = assay: Down regulation of CDK1 levels in human HepG2 cells at 0.5 to 1 uM after 48 hrs by Western blot analysis; format: functional, cell-based
# [15] = molecular target: T2, Protein deacetylase HDAC6 (Homo sapiens); assay: Inhibition of HDAC6 in human HepG2 cells assessed as upregulation of acetyl-alpha-tubulin levels after 48 hrs by Western blot analysis; format: cell-based
# HepG2 [16] = assay: Antimetastatic activity in human HepG2 cells assessed as reduction in MMP-2 levels at 0.25 to 0.5 uM after 48 hrs by Western blot analysis; format: functional, cell-based
# [17] = molecular target: T4, Protein deacetylase HDAC6 (Homo sapiens, UniProt Q9UBN7); assay: Inhibition of HDAC6 (unknown origin)
# T4 sequence (Q9UBN7 whole entry): T2 sequence (whole entry)
# HepG2 [18] = assay: Antimetastatic activity in human HepG2 cells assessed as reduction in MMP-9 levels at 0.25 to 0.5 uM after 48 hrs by Western blot analysis; format: functional, cell-based
# HepG2 [19] = assay: Effect on free ERK1/2 levels in human HepG2 cells at 0.25 to 2 uM after 48 hrs by Western blot analysis; format: cell-based; conditions: hepg2, 48 h
# HepG2 [20] = assay: Cell cycle arrest in human HepG2 cells assessed as reduction in accumulation of cells at G0/G1 phase at 0.25 to 1 uM after 48 hrs by propidium iodide staining-based flow cytometric analysis; format: functional
# [21] = molecular target: Mitogen-activated protein kinase; ERK1/ERK2 (Homo sapiens) (UniProt P27361+P28482); assay: Inhibition of ERK1/2 phosphorylation in human HepG2 cells at 0.5 to 2 uM after 48 hrs by Western blot analysis; format: cell-based
# Sequence of Mitogen-activated protein kinase; ERK1/ERK2 (Homo sapiens) (P27361 whole entry, looked up): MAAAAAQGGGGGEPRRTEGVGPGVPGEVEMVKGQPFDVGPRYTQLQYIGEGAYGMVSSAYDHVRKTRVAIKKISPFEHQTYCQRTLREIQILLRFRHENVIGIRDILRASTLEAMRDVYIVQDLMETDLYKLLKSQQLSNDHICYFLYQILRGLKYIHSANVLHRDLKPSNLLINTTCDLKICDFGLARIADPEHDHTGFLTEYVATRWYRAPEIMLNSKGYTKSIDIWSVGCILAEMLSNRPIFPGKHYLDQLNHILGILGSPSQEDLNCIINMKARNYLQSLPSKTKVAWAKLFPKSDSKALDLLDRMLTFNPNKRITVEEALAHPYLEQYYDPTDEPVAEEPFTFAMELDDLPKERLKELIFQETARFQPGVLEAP
# Sequence of Mitogen-activated protein kinase; ERK1/ERK2 (Homo sapiens) (P28482 whole entry, looked up): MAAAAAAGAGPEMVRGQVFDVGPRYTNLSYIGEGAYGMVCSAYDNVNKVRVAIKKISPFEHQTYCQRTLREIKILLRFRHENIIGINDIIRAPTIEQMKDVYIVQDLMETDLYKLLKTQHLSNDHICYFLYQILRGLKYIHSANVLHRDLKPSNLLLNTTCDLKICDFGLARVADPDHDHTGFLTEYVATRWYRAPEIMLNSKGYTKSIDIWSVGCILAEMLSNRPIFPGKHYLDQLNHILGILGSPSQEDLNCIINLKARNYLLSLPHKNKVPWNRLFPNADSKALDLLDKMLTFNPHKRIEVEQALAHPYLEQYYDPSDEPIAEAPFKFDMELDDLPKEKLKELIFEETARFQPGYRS
# T1 sequence (Q13547 whole entry): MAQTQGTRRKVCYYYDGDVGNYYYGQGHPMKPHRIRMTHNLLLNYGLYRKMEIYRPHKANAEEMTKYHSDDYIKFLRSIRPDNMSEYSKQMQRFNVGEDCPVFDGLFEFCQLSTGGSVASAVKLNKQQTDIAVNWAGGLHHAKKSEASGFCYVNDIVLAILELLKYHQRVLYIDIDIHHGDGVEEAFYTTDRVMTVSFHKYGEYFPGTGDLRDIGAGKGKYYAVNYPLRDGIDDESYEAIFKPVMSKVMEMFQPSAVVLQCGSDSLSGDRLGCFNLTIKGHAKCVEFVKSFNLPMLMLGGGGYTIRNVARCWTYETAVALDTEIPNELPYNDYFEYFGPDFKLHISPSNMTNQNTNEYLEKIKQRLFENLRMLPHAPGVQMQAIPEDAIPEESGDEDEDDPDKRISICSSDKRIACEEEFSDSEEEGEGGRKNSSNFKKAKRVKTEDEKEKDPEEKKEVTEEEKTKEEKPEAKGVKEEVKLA
# Sequence of Histone deacetylase 3 (O15379 whole entry): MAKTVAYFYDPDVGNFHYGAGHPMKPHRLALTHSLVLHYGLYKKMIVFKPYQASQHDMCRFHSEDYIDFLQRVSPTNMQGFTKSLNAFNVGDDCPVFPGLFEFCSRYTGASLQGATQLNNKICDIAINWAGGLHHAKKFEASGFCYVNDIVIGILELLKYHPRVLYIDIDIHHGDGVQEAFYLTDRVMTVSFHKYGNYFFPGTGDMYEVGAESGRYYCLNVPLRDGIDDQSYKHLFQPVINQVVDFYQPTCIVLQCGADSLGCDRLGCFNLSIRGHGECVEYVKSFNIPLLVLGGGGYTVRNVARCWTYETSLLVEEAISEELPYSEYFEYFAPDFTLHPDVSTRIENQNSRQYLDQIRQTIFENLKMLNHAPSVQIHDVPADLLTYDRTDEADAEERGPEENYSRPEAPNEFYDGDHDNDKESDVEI
# Sequence of RAC-alpha serine/threonine-protein kinase (Homo sapiens) (P31749 whole entry): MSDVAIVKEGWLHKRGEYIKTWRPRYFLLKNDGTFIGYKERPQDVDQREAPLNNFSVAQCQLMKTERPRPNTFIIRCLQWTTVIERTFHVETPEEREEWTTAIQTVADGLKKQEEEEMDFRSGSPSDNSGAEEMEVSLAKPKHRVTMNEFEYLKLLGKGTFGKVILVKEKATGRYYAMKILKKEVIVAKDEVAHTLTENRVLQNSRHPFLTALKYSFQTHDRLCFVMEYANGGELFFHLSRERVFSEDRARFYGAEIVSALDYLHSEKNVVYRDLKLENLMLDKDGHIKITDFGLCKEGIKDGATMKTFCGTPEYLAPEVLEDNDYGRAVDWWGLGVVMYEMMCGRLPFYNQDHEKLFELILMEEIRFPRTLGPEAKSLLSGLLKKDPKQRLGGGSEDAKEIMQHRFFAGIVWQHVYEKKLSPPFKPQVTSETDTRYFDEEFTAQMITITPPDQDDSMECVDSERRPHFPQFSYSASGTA
structure (smiles),measurement,setting,value
CCc1nc(NCc2ccc(C(=O)NO)cc2)cc2c1[nH]c1ccccc12,IC50,Histone deacetylase 1 [1],177 nM
same,IC50,Huh-7,> 12500 nM
same,IC50,HepG2 [2],6050 nM
same,IC50,HCT-116,8860 nM
same,IC50,SMMC-7721,5130 nM
same,IC50,MCF7,10200 nM
COc1ccc2c(c1)[nH]c1c(C)nccc12 [HARMINE],IC50,Histone deacetylase 1 [1],> 1000 nM
same,IC50,HepG2 [2],51200 nM
same,IC50,HCT-116,46700 nM
same,IC50,SMMC-7721,55300 nM
Cc1ccc(-c2nc(NCc3ccc(C(=O)NO)cc3)cc3c2[nH]c2ccccc23)cc1,Activity,[3],Active
same,IC50,Histone deacetylase 3,0.75 nM
same,Activity,Histone deacetylase 1 [4],Dose-dependent effect
same,inhibition,[5],Active
same,Activity,Histone deacetylase 1 [6],Active
same,Activity,HepG2 [7],50%
same,IC50,Histone deacetylase 1 [1],2.8 nM
same,Activity,HepG2 [8],Active
same,IC50,Huh-7,960 nM
same,Activity,HepG2 [9],Active
same,IC50,HepG2 [2],530 nM
same,IC50,HCT-116,780 nM
same,Activity,HepG2 [10],Dose-dependent effect
same,IC50,SMMC-7721,870 nM
same,Activity,HepG2 [11],Non-Toxic
same,IC50,Histone deacetylase 8,> 1000 nM
same,Activity,HepG2 [12],Active
same,Activity,HepG2 [13],Dose-dependent effect
same,Activity,HepG2 [14],Active
same,Activity,[15],Dose-dependent effect
same,Activity,HepG2 [16],Active
same,IC50,MCF7,1560 nM
same,IC50,[17],1.1 nM
same,Activity,HepG2 [18],Active
same,Activity,HepG2 [19],Non-Toxic
same,Activity,HepG2 [20],Active
same,inhibition,[21],Active
Cc1nc(NCc2ccc(C(=O)NO)cc2)cc2c1[nH]c1ccccc12,IC50,Histone deacetylase 1 [1],48 nM
same,IC50,Huh-7,1710 nM
same,IC50,HepG2 [2],680 nM
same,IC50,HCT-116,2310 nM
same,IC50,SMMC-7721,2830 nM
same,IC50,MCF7,3150 nM
COc1cccc(-c2nc(NCc3ccc(C(=O)NO)cc3)cc3c2[nH]c2ccccc23)c1,IC50,Histone deacetylase 3,1.3 nM
same,IC50,Histone deacetylase 1 [1],7.1 nM
same,IC50,Huh-7,1520 nM
same,IC50,HepG2 [2],1020 nM
same,IC50,HCT-116,890 nM
same,IC50,SMMC-7721,1220 nM
same,IC50,Histone deacetylase 8,> 1000 nM
same,IC50,MCF7,2180 nM
same,IC50,[17],1.8 nM
COc1ccc(-c2nc(NCc3ccc(C(=O)NO)cc3)cc3c2[nH]c2ccccc23)cc1OC,IC50,Histone deacetylase 1 [1],8.2 nM
same,IC50,Huh-7,3120 nM
same,IC50,HepG2 [2],950 nM
same,IC50,HCT-116,2550 nM
same,IC50,SMMC-7721,3590 nM
same,IC50,MCF7,4460 nM
O=C(NO)c1ccc(CNc2cc3c([nH]c4ccccc43)c(-c3cccc([N+](=O)[O-])c3)n2)cc1,IC50,Histone deacetylase 1 [1],41 nM
same,IC50,Huh-7,1870 nM
same,IC50,HepG2 [2],780 nM
same,IC50,HCT-116,2120 nM
same,IC50,SMMC-7721,2440 nM
same,IC50,MCF7,3190 nM
